Experimental findings from CN117003659A, “一种可离子化脂质或其药学上可接受的盐、组合物和应用” (priority 2023, dated 2023) are described below.

The subject of experiment [1] is female BALB/C mice (雌性BALB/C小鼠). As to the kind of experiment: In vivo expression of Fluc mRNA-LNP, live fluorescence imaging (Example 7). Set-up: species or system mouse. The note with it: for fluorescence intensity (total luminous flux) / course of fluorescence intensity at 24 h (in words): mice, 20 μg Fluc mRNA, intramuscular; for fluorescence intensity (total luminous flux): 6 h, order of magnitude; for fluorescence intensity of expressed protein compared with U-102, U-104, U-106, U-108, U-110, U-112 (in words): mRNA-LNP, versus U-102, U-104, U-106, U-108, U-110, U-112.

The subject of experiment [2] is human umbilical vein endothelial cells (人脐静脉内皮细胞, HUVEC). As to the kind of experiment: In vitro expression of VEGFa mRNA-LNP, ELISA of VEGFa protein (Example 6). It counts as cell-based. The note with it: mRNA 1 μg, 24 h. Background: In an ELISA, binding on a coated surface is turned into a signal by an enzyme label.
Experiment [3] deals with HEK293T cells (HEK293T细胞). It counts as cell-based. Conditions: RBD mRNA-LNP, mRNA 1 μg, 24 h, cell supernatant.

`CCCCCCCCC(CCCCCC)C(=O)OCCCCCCN(CCCCO)CCCCCCOC(=O)C(CCCCCC)CCCCCCCC` (stereo not shown) [ALC-0315, ((4-羟基丁基)氮杂二基)双(己烷-6,1-二基)双(2-己基癸酸酯), reference compound]: in experiment [1], the “fluorescence intensity (total luminous flux)” value was ~10^7 p/s and the “course of fluorescence intensity at 24 h (in words)” value is listed as “开始减弱”. Moreover, in experiment [2], the VEGFa protein concentration was determined as 7.9 ng/mL. In addition, the RBD protein concentration in experiment [3] is 8.5 ng/mL.

`CCCCCCCCCCCOC(=O)CCCCCN(CCO)CCCCCCCC(=O)OC(CCCCCCCC)CCCCCCCC` [SM-102, 8-[(2-羟乙基)[6-氧代-6-(十一烷基氧基)己基]氨基]辛酸1-辛基壬基酯, reference compound]: in experiment [1], the “fluorescence intensity (total luminous flux)” value is given as ~10^7 p/s and the “course of fluorescence intensity at 24 h (in words)” value was “开始减弱”. Moreover, in experiment [2], the VEGFa protein concentration was 11.3 ng/mL. This molecule also gave an RBD protein concentration in experiment [3] of 10.2 ng/mL.

For the molecule `CCCCCCCCC(CCCCCC)COC(=O)CCCCCN(CCCCCC(=O)OCC(CCCCCC)CCCCCCCC)CCCN(CCO)CCO` (stereo not shown) [U-101, 双(2-己基癸基)-6,6'-((3-(双(2-羟乙基)氨基)丙基)氮杂二烷基)二己酸酯], the “fluorescence intensity of expressed protein compared with U-102, U-104, U-106, U-108, U-110, U-112 (in words)” value in experiment [1] is “更高一些”. The molecule further showed a VEGFa protein concentration in experiment [2] of 52.8 ng/mL. The molecule also came in with an RBD protein concentration in experiment [3] of 50.6 ng/mL.

In turn, `CCCCCCCCC(CCCCCC)COC(=O)CCCCCCN(CCCCCCC(=O)OCC(CCCCCC)CCCCCCCC)CCN(CCO)CCO` (stereo not shown) [U-102, 双(2-己基癸基)-7,7'-((2-(双(2-羟乙基)氨基)乙基)氮杂二烷基)二庚酸酯] gave a VEGFa protein concentration in experiment [2] of 48.7 ng/mL. Further, the RBD protein concentration in experiment [3] is 49.3 ng/mL.

With `CCCCCCCCCCCCOC(=O)CCCCCN(CCCCCC(=O)OCC(CCCCCC)CCCCCCCC)CCCN(CCO)CCO` (stereo not shown) [U-103, O-2-己基癸基-O’-十二烷基-6,6'-((3-(双(2-羟乙基)氨基)丙基)氮杂二烷基)二己酸酯], the “fluorescence intensity of expressed protein compared with U-102, U-104, U-106, U-108, U-110, U-112 (in words)” value in experiment [1] was “更高一些”. The molecule also registered a VEGFa protein concentration in experiment [2] of 49.6 ng/mL. This molecule also gave an RBD protein concentration in experiment [3] of 49.6 ng/mL.

`CCCCCCCCCCCCOC(=O)CCCCCCN(CCCCCCC(=O)OCC(CCCCCC)CCCCCCCC)CCN(CCO)CCO` (stereo not shown) [U-104, O-2-己基癸基-O’-十二烷基-6,6'-((2-(双(2-羟乙基)氨基)乙基)氮杂二烷基)二庚酸酯]: the VEGFa protein concentration in experiment [2] was determined as 47.9 ng/mL. In experiment [3], this molecule gave an RBD protein concentration of 48.7 ng/mL.

On to `CCCCCCCCC(CCCCCCCC)OC(=O)CCCCCN(CCCCCC(=O)OC(CCCCCCCC)CCCCCCCC)CCCN(CCO)CCO` [U-105, 双(1-辛基壬基)-6,6'-((3-(双(2-羟乙基)氨基)丙基)氮杂二烷基)二己酸酯], for which the “fluorescence intensity of expressed protein compared with U-102, U-104, U-106, U-108, U-110, U-112 (in words)” value in experiment [1] was “更高一些”. Besides, the VEGFa protein concentration in experiment [2] amounted to 48.3 ng/mL. The RBD protein concentration in experiment [3] is on record as 48.4 ng/mL.

`CCCCCCCCC(CCCCCCCC)OC(=O)CCCCCCN(CCCCCCC(=O)OC(CCCCCCCC)CCCCCCCC)CCN(CCO)CCO` [U-106, 双(1-辛基壬基)-7,7'-((2-(双(2-羟乙基)氨基)乙基)氮杂二烷基)二庚酸酯]: in experiment [2], the VEGFa protein concentration turned out to be 45.5 ng/mL. In experiment [3], this molecule yielded an RBD protein concentration of 47.8 ng/mL.

With `CCCCCCCCCCCCOC(=O)CCCCCN(CCCCCC(=O)OC(CCCCCCCC)CCCCCCCC)CCCN(CCO)CCO` [U-107, O-1-辛基壬基-O’-十二烷基-6,6'-((3-(双(2-羟乙基)氨基)丙基)氮杂二烷基)二己酸酯], in experiment [1], the “fluorescence intensity of expressed protein compared with U-102, U-104, U-106, U-108, U-110, U-112 (in words)” value was “更高一些”. In addition, in experiment [2], the VEGFa protein concentration stood at 47.7 ng/mL. Moreover, the RBD protein concentration in experiment [3] is 47.6 ng/mL.

The molecule `CCCCCCCCCCCCOC(=O)CCCCCCN(CCCCCCC(=O)OC(CCCCCCCC)CCCCCCCC)CCN(CCO)CCO` [U-108, O-1-辛基壬基-O’-十二烷基-7,7'-((2-(双(2-羟乙基)氨基)乙基)氮杂二烷基)二庚酸酯] showed a VEGFa protein concentration in experiment [2] of 45.3 ng/mL. The molecule also gave an RBD protein concentration in experiment [3] of 45.7 ng/mL.

As for `CCCCCCCC(CCCCCCC)OC(=O)CCCCCN(CCCCCC(=O)OC(CCCCCCC)CCCCCCC)CCCN(CCO)CCO` [U-109, 双(1-庚基辛基)-6,6'-((3-(双(2-羟乙基)氨基)丙基)氮杂二烷基)二己酸酯], the “fluorescence intensity of expressed protein compared with U-102, U-104, U-106, U-108, U-110, U-112 (in words)” value in experiment [1] is recorded as “更高一些”. The VEGFa protein concentration in experiment [2] worked out at 39.2 ng/mL. For the same molecule, the RBD protein concentration in experiment [3] is recorded as 43.2 ng/mL.

`CCCCCCCC(CCCCCCC)OC(=O)CCCCCCN(CCCCCCC(=O)OC(CCCCCCC)CCCCCCC)CCN(CCO)CCO` [U-110, 双(1-庚基辛基)-7,7'-((2-(双(2-羟乙基)氨基)乙基)氮杂二烷基)二庚酸酯] showed a VEGFa protein concentration in experiment [2] of 36.8 ng/mL. Moreover, in experiment [3], the RBD protein concentration turned out to be 41.6 ng/mL.

As to `CCCCCCCCCCCCOC(=O)CCCCCN(CCCCCC(=O)OC(CCCCCCC)CCCCCCC)CCCN(CCO)CCO` [U-111, O-1-庚基辛基-O’-十二烷基-6,6'-((3-(双(2-羟乙基)氨基)丙基)氮杂二烷基)二己酸酯], the “fluorescence intensity of expressed protein compared with U-102, U-104, U-106, U-108, U-110, U-112 (in words)” value in experiment [1] is “更高一些”. The molecule further showed a VEGFa protein concentration in experiment [2] of 41.7 ng/mL. The molecule further returned an RBD protein concentration in experiment [3] of 44.3 ng/mL.

`CCCCCCCCCCCCOC(=O)CCCCCCN(CCCCCCC(=O)OC(CCCCCCC)CCCCCCC)CCN(CCO)CCO` [U-112, O-1-庚基辛基-O’-十二烷基-7,7'-((2-(双(2-羟乙基)氨基)乙基)氮杂二烷基)二庚酸酯] returned a VEGFa protein concentration in experiment [2] of 36.1 ng/mL. The molecule further had an RBD protein concentration in experiment [3] of 42.8 ng/mL.

For the molecule `CCCCCCCCC(CCCCCC)COC(=O)CCCCCN(CCCCCC(=O)OCC(CCCCCC)CCCCCCCC)CCN(CCO)CCO` (stereo not shown) [UR-301, 双(2-己基癸基)-6,6'-((2-(双(2-羟乙基)氨基)乙基)氮杂二烷基)二己酸酯], the VEGFa protein concentration in experiment [2] was 4.8 ng/mL. The molecule also registered an RBD protein concentration in experiment [3] of 6.8 ng/mL.

With `CCCCCCCCC(CCCCCC)COC(=O)CCCCCCN(CCCCCCC(=O)OCC(CCCCCC)CCCCCCCC)CCCN(CCO)CCO` (stereo not shown) [UR-302, 双(2-己基癸基)-7,7'-((3-(双(2-羟乙基)氨基)丙基)氮杂二烷基)二庚酸酯], the VEGFa protein concentration in experiment [2] came out at 3.7 ng/mL. Also, in experiment [3], the RBD protein concentration is 4.5 ng/mL.

For `CCCCCCCCC(CCCCCC)COC(=O)CCCCCCCN(CCCCCCCC(=O)OCC(CCCCCC)CCCCCCCC)CCN(CCO)CCO` (stereo not shown) [UR-303, 双(2-己基癸基)-8,8'-((2-(双(2-羟乙基)氨基)乙基)氮杂二烷基)二辛酸酯], the VEGFa protein concentration in experiment [2] came out at 6.2 ng/mL. This molecule also yielded an RBD protein concentration in experiment [3] of 6.4 ng/mL.

As to `CCCCCCCCC(CCCCCC)COC(=O)CCCCN(CCCCC(=O)OCC(CCCCCC)CCCCCCCC)CCCN(CCO)CCO` (stereo not shown) [UR-304, 双(2-己基癸基)-5,5'-((3-(双(2-羟乙基)氨基)丙基)氮杂二烷基)二戊酸酯], the VEGFa protein concentration in experiment [2] is listed as 4.9 ng/mL. This molecule also yielded an RBD protein concentration in experiment [3] of 5.4 ng/mL.
